Measured values taken from patent publication US10183944B2 (Asana Biosciences, LLC, priority 2011, dated 2019).
pEC50, pIC50: −log10 of the molar value. Structures can show the parent of a compound that is named as a salt.

What was measured:
[1] = biological target: Syk (356-635 amino acids) catalytic domain (Homo sapiens (Human), UniProt P43405); assay: Inhibition of enzymatic Syk kinase activity (radiometric); type: biochemical; details: read-out: IC50 Syk
Method in brief: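 Radiometric filter-binding format: 32P transfer from γ-32P-ATP onto pG4T, scintillation-counted after acid washes of P81 paper. Syk kinase domain (356-635), 0.035–7.5 ng per reaction, was exposed to compound for 30 minutes at room temperature before a 10-minute, 30° C. reaction with ATP (100 μM stock). Inhibition derived from counts with versus without compound.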

JAK2 = JAK2 (Homo sapiens (Human), UniProt O60674); assay: Inhibition of enzymatic JAK2 kinase activity (TR-FRET); type: biochemical; details: read-out: IC50 JAK
JAK2, sequence (O60674 808-1132): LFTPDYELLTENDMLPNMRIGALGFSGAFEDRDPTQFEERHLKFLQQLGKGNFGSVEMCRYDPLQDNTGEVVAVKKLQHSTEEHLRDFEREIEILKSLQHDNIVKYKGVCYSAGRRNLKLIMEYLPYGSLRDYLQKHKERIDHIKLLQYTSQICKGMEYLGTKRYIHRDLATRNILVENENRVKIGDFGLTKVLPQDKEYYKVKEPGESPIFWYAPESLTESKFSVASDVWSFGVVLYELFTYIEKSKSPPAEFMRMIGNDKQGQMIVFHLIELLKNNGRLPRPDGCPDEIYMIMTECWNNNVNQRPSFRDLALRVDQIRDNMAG
Method in brief: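 TR-FRET read-out (Eu antibody donor, Ulight poly Glu-Tyr acceptor, 665/615 nm ratio) after a 60 min RT kinase reaction with ATP, begun following 30 min compound–enzyme preincubation. Stopped by EDTA; inhibition expressed as 100 minus % activity of positive control.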

RBL2H3 cells = assay: Degranulation assay: β-hexosaminidase release during immune complex mediated degranulation; type: cell-based, rat; details: Rattus norvegicus, RBL-2H3, Assay Protocol B (96 well format); for inhibition at 1 µM: read-out: Degranulation % inhibition at 1 μM; for pEC50: read-out: Degranulation EC50
Experimental: The objective of this assay was to examine by Fluorescence method the effect of compounds on β-hexosaminidase release during immune complex mediated degranulation in RBL2H3 cells. Compounds were tested for their ability to inhibit the ability of this immune complex to mediate β-hexosaminidase release, in an enzyme assay with […] as substrate. […] Emission 460 nm). [table] [table] RBL2H3 cells were maintained in MEM complete media containing 10% FBS at 70%-80% confluence in a mammalian cell culture CO2 incubator with 5% CO2 at 37° C. 2×10^5 cells/well were plated in 1 mL of complete media and incubated for 5 hours for cell attachment. Complete media was replaced with 1 mL of serum free MEM media containing 1.2 μg/mL of anti-DNP rat IgE as sensitizing agent and further incubated overnight with 5% CO2 at 37° C. […] Cells were further stimulated with 5 μg/mL of DNP-BSA for 60 minutes. Plates were centrifuged for 5 minutes at 1000 rpm and 25 μL of culture supernatant was transferred from each assay well into a 96 well black coated plate. 25 μL β-NAG substrate was added to this mixture and incubated at room temperature for 30 minutes. The reaction was terminated with 100 μL of stop solution and fluorescence was monitored. (Excitation 355 nm; Emission 460 nm) See, Sanderson, (2010), Cellular Immunology, 262(1): 28-34 and Silverman, (2006) MCB, 26(5):1826-1838, which are incorporated herein by reference. The % release of β-Hexosaminidase for the test compound was calculated using the following formula: RBL2H3 cells were maintained in MEM complete media containing 10% FBS at 70-80% confluence in a mammalian cell culture CO2 incubator with 5% CO2 at 37° C. 5×10^4 cells/well were plated in 200 μL of complete media containing 0.3 μg/mL of anti-DNP rat IgE as sensitizing agent for 24 hours at 37° C. & 5% CO2. The following day, cells were washed twice with PIPES buffer for 10 minutes at 37° C. and replenished with serum free MEM media. Cells were treated with various concentrations of test compounds (in 0.5% DMSO) for 15 minutes at 37° C. and 5% CO2. The cells were further stimulated with 0.1 μg/mL of DNP-BSA for 45 minutes. The plates were spun for 5 minutes at 2000 rpm and 25 μL of culture supernatant was then transferred from each assay well into a 96 well black coated plate. […] β-NAG substrate was added and incubated at RT for 30 minutes. After incubation with substrate, 150 μL of stop solution was added and fluorescence was monitored. (Excitation 355 nm; Emission 460 nm). See, Yamamoto, JPET, 306(3):1174-1181 (2003) and Taylor, MCB, 15(8): 4149-4157 (1995), which are herein incorporated by reference. Release of β-hexosaminidase during the degranulation process by immune complex mediated FcεRI stimulation is through the SYK pathway. The % inhibition of β-hexosaminidase release by Syk inhibitor gives information with regard to its Syk inhibition potency.

Row | pIC50 [1] | pIC50 (JAK2) | pEC50 (RBL2H3 cells) | SMILES | inhibition at 1 µM (RBL2H3 cells) [%]
1 | > 8.00 | > 8.00 | 7.82 | O=c1[nH]ncc2nc(N3CCCCCC3)nc(Nc3ccc(N4CCN(CCF)CC4)cc3)c12 [Example 275, 2-(azepan-1-yl)-4-((4-(4-(2-fluoroethyl)piperazin-1-yl)phenyl)amino) pyrimido[4,5-d]pyridazin-5(6H)-one] | 73
2 | > 7.30 | > 7.30 | – | O=c1[nH]ncc2nc(N3CCCCC3)nc(Nc3ccc(CN4CCNCC4)cc3)c12 [Example 30, 4-(4-(piperazin-1-ylmethyl)phenylamino)-2-(piperidin-1-yl)pyrimido[4,5-d]pyridazin-5(6H)-one hydrochloride] | 99
3 | > 8.00 | > 7.00 | – | O=c1[nH]ncc2nc(-c3ccsc3)nc(Nc3ccc(CN4CCNCC4)cc3)c12 [Example 24, 4-(4-(piperazin-1-ylmethyl)phenylamino)-2-(thiophen-3-yl) pyrimido[4,5-d]pyridazin-5(6H)-one hydrochloride] | 83
4 | > 7.30 | > 7.30 | 7.38 | O=C1CN(CCOc2ccc(Nc3nc(N4CCCCCC4)nc4cn[nH]c(=O)c34)cc2)CCN1 [Example 157, 2-(azepan-1-yl)-4-((4-(2-(3-oxopiperazin-1-yl)ethoxy)phenyl)amino) pyrimido[4,5-d]pyridazin-5(6H)-one] | 70
5 | > 7.30 | > 8.00 | 7.66 | CC1(O)CCN(CCc2ccc(Nc3nc(N4CCCCCC4)nc4cn[nH]c(=O)c34)cc2)CC1 [Example 210, 2-(azepan-1-yl)-4-((4-(2-(4-hydroxy-4-methylpiperidin-1-yl)ethyl)phenyl)amino) pyrimido[4,5-d]pyridazin-5(6H)-one] | 79
6 | > 7.30 | < 7.00 | – | O=c1[nH]ncc2nc(-c3ccc4c(c3)OCO4)nc(Nc3ccc(CN4CCNCC4)cc3)c12 [Example 33, 2-(benzo[d][1,3]dioxol-5-yl)-4-(4-(piperazin-1-ylmethyl)phenylamino) pyrimido[4,5-d]pyridazin-5(6H)-one hydrochloride] | 58
7 | > 7.30 | > 7.30 | – | O=C(O)C1CCN(Cc2ccc(Nc3nc(-c4ccccc4)nc4cn[nH]c(=O)c34)cc2)CC1 [Example 35, 1-(4-(5-oxo-2-phenyl-5,6-dihydropyrimido[4,5-d]pyridazin-4-ylamino)benzyl)piperidine-4-carboxylic acid] | 19
8 | > 7.00 | > 7.00 | 6.88 | COc1cccc(-c2nc(Nc3ccc(N4CCC5(CC4)CC5C(=O)O)cc3)c3c(=O)[nH]ncc3n2)c1 (centres unmarked) [Example 47, 6-(4-((2-(3-methoxyphenyl)-5-oxo-5,6-dihydropyrimido[4,5-d]pyridazin-4-yl)amino)phenyl)-6-azaspiro[2.5]octane-1-carboxylic acid] | 100
9 | > 7.30 | > 8.00 | 6.82 | O=C(CC1CCN(c2ccc(Nc3nc(N4CCCCCC4)nc4cn[nH]c(=O)c34)cc2)CC1)N(CCO)CCO [Example 118, 2-(1-(4-((2-(azepan-1-yl)-5-oxo-5,6-dihydropyrimido[4,5-d]pyridazin-4-yl)amino)phenyl)piperidin-4-yl)-N,N-bis(2-hydroxyethyl)acetamide] | 87
10 | > 8.00 | > 8.00 | 7.46 | O=C(O)C1CC1C1CCN(c2ccc(Nc3nc(N4CCCCCC4)nc4cn[nH]c(=O)c34)cc2)CC1 (centres unmarked) [Example 131, 2-(1-(4-((2-(azepan-1-yl)-5-oxo-5,6-dihydropyrimido[4,5-d]pyridazin-4-yl)amino)phenyl)piperidin-4-yl) cyclopropanecarboxylic acid] | 98
11 | > 7.30 | > 8.00 | 7.41 | CN(c1nc(Nc2ccc(N3CCC(CC(=O)O)CC3)cc2)c2c(=O)[nH]ncc2n1)C1CCCCC1 [Example 161, 2-(1-(4-((2-(cyclohexyl(methyl)amino)-5-oxo-5,6-dihydropyrimido[4,5-d]pyridazin-4-yl)amino)phenyl)piperidin-4-yl)acetic acid] | 74
12 | > 8.00 | > 7.30 | 7.62 | N#CCC1CCN(c2nc(Nc3ccc(N4CCN(CCF)CC4)cc3)c3c(=O)[nH]ncc3n2)CC1 [Example 276, 2-(1-(4-((4-(4-(2-fluoroethyl)piperazin-1-yl)phenyl)amino)-5-oxo-5,6-dihydropyrimido[4,5-d]pyridazin-2-yl)piperidin-4-yl)acetonitrile] | 91
13 | > 7.30 | > 7.30 | 6.56 | N#CCC1CCN(c2nc(Nc3ccc(N4CCC(CC(=O)O)CC4)nc3)c3c(=O)[nH]ncc3n2)CC1 [Example 116, 2-(1-(5-((2-(4-(cyanomethyl)piperidin-1-yl)-5-oxo-5,6-dihydropyrimido[4,5-d]pyridazin-4-yl)amino)pyridin-2-yl)piperidin-4-yl)acetic acid] | 65
14 | > 7.30 | – | 6.45 | N#CCC1CCN(c2nc(Nc3ccc(N4CCC5(CC4)CC5C(=O)O)cc3)c3c(=O)[nH]ncc3n2)CC1 (centres unmarked) [Example 66, 6-(4-((2-(4-(cyanomethyl)piperidin-1-yl)-5-oxo-5,6-dihydropyrimido[4,5-d]pyridazin-4-yl)amino)phenyl)-6-azaspiro[2.5]octane-1-carboxylic acid] | 75
15 | > 7.30 | – | 6.64 | N#CCC1CCN(c2nc(Nc3ccc(OCCC4CCNCC4)cc3)c3c(=O)[nH]ncc3n2)CC1 [Example 169, 2-(1-(5-oxo-4-((4-(2-(piperidin-4-yl)ethoxy)phenyl)amino)-5,6-dihydropyrimido[4,5-d]pyridazin-2-yl)piperidin-4-yl)acetonitrile] | 17
16 | > 8.00 | – | 7.51 | O=C(O)CC1CCN(c2ccc(Nc3nc(N4CCCCCC4)nc4cn[nH]c(=O)c34)cc2)CC1 [Example 69, 2-(1-(4-((2-(azepan-1-yl)-5-oxo-5,6-dihydropyrimido[4,5-d]pyridazin-4-yl)amino)phenyl)piperidin-4-yl)acetic acid] | 100
17 | > 8.00 | – | 7.54 | CCN1CCN(CCc2ccc(Nc3nc(N4CCCCCC4)nc4cn[nH]c(=O)c34)cc2)CC1 [Example 209, 2-(azepan-1-yl)-4-((4-(2-(4-ethylpiperazin-1-yl)ethyl)phenyl)amino) pyrimido[4,5-d]pyridazin-5(6H)-one] | 81

Row | SMILES | pIC50 [1] | pIC50 (JAK2) | pEC50 (RBL2H3 cells) | inhibition at 1 µM (RBL2H3 cells) [%]
18 | N#CCC1CCN(c2nc(Nc3ccc(N4CCN(CC(O)CO)CC4)cc3)c3c(=O)[nH]ncc3n2)CC1 (centres unmarked) [Example 274, 2-(1-(4-((4-(4-(2,3-dihydroxypropyl)piperazin-1-yl)phenyl)amino)-5-oxo-5,6-dihydropyrimido[4,5-d]pyridazin-2-yl)piperidin-4-yl)acetonitrile] | > 8.00 | > 8.00 | 7.09 | 59
19 | O=c1[nH]ncc2nc(N3CCCCCC3)nc(Nc3ccc(CCN4CCN(CCO)CC4)cc3)c12 [Example 211, 2-(azepan-1-yl)-4-((4-(2-(4-(2-hydroxyethyl)piperazin-1-yl)ethyl)phenyl)amino)pyrimido[4,5-d]pyridazin-5(6H)-one] | > 7.30 | > 7.30 | 7.31 | 53
